Laboratory results taken from patent US20060052376A1, “Carboxamides” (Merck Patent GmbH, priority 2002, published 2006).

Key:
FXa = FXa (Homo sapiens, UniProt P00742); assay: Factor Xa inhibition (FXa-IC50); type: biochemical
Excerpt: The inhibition of factor Xa by the compounds according to the invention and the measurement of the anticoagulant and antithrombotic activity can be determined by conventional in-vitro or in-vivo methods. A suitable method is described, for example, by J. Hauptmann et al. in Thrombosis and Haemostasis 1990, 63, 220-223.
The inhibition of factor Xa can be measured, for example by the method of T. Hara et al. in Thromb. Haemostas. 1994, 71, 314-319.

TF/FVIIa = TF/FVIIa (Homo sapiens, UniProt P08709); assay: TF/FVIIa inhibition (TF/FVIIa-IC50); type: biochemical
Chain of TF/FVIIa (P08709 213-466 limits assumed): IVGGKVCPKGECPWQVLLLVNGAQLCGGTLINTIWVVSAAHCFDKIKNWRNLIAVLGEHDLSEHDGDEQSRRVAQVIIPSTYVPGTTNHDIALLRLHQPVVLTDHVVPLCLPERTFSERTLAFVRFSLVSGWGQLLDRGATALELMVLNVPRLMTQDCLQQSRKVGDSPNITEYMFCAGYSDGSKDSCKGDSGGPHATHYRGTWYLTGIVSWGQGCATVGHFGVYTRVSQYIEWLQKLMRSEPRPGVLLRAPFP
Chain of TF/FVIIa (P08709 61-212 partner limits assumed): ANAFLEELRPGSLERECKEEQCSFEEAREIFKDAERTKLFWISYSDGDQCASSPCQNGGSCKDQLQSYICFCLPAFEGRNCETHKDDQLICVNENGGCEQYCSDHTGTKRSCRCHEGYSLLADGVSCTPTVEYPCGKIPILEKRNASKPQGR
Chain of TF/FVIIa (P13726 33-295 partner): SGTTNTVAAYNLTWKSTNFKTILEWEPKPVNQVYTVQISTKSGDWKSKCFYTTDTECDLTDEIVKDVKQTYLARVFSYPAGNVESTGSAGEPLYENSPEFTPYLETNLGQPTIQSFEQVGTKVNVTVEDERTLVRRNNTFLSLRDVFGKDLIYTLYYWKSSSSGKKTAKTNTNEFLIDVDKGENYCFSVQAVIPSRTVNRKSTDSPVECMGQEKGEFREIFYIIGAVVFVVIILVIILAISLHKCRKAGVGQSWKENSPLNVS
Excerpt: Coagulation factor VIIa initiates the extrinsic part of the coagulation cascade after binding to tissue factor and contributes to the activation of factor X to give factor Xa. Inhibition of factor Vila thus prevents the formation of factor Xa and thus subsequent thrombin formation. The inhibition of factor Vila by the compounds according to the invention and the measurement of the anticoagulant and antithrombotic activity can be determined by conventional in-vitro or in-vivo methods. A conventional method for the measurement of the inhibition of factor VIIa is described, for example, by H. F. Ronning et al. in Thrombosis Research 1996, 84, 73-81.

Chain of FXa (P00742 235-488 limits assumed): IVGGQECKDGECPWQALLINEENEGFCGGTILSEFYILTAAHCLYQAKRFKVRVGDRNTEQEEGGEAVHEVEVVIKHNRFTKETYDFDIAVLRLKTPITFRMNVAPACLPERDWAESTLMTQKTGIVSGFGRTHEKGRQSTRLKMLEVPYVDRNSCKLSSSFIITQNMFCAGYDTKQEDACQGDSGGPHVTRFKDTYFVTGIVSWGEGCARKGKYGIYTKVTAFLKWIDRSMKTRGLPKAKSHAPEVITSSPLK
Chain of FXa (P00742 41-179 partner limits assumed): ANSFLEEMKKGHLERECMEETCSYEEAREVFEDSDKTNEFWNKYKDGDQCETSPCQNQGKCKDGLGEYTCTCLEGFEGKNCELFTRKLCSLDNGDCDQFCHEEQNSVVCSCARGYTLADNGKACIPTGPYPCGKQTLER

Row | SMILES | IC50 (FXa) [nM] | IC50 (TF/FVIIa) [nM]
1 | Cc1cc(NC(=O)[C@@H](CC(C)C)NC(=O)c2ccc(Cl)s2)ccc1N1CCOCC1=O [Compound 1A, (R)-2-[(5-chlorothiophene-2-carbonyl)amino]-N-[3-methyl-4-(3-oxomorpholin-4-yl)phenyl]-4-methylvaleramide] | 7.3 | 6.9
2 | CC(C)C[C@@H](NC(=O)c1ccc(Cl)s1)C(=O)Nc1ccc(-n2ccncc2=O)cc1 [Compound 2A, (R)-2-[(5-chlorothiophene-2-carbonyl)amino]-N-[4-(2-oxo-2H-pyrazin-1-yl)phenyl]4-methylvaleramide] | 39 | –
3 | CC(C)C[C@@H](NC(=O)c1ccc(Cl)s1)C(=O)Nc1ccc(N2CCCCC2=N)cc1 [Compound 4A, (R)-2-[(5-chlorothiophene-2-carbonyl)amino]-N-[4-(2-iminopiperidin-1-yl)phenyl]-4-methylvaleramide] | 25 | –
4 | CC(C)C[C@H](NC(=O)c1ccc(Cl)s1)C(=O)Nc1ccc(N2CCCCC2=N)cc1 [Compound 4B, (S)-2-[(5-chlorothiophene-2-carbonyl)amino]-N-[4-(2-iminopiperidin-1-yl)phenyl]-4-methylvaleramide] | 260 | –
